The source of these data is patent US12581252B2, “Substituted pyrrolo[3,4-b]pyridines as PI3K-α inhibitors” (Relay Therapeutics, Inc., priority 2020, dated 2026).

For the assay, the target named is H1047R PIK3CA enzyme (Homo sapiens, UniProt P42336, H1047R). Kind of assay: ADP-Glo Biochemical PIK3CA Kinase Assay. On the technique in general: ADP-Glo turns the ADP formed in a reaction into a luminescent signal.
H1047R PIK3CA enzyme, sequence (P42336 whole entry H1047R): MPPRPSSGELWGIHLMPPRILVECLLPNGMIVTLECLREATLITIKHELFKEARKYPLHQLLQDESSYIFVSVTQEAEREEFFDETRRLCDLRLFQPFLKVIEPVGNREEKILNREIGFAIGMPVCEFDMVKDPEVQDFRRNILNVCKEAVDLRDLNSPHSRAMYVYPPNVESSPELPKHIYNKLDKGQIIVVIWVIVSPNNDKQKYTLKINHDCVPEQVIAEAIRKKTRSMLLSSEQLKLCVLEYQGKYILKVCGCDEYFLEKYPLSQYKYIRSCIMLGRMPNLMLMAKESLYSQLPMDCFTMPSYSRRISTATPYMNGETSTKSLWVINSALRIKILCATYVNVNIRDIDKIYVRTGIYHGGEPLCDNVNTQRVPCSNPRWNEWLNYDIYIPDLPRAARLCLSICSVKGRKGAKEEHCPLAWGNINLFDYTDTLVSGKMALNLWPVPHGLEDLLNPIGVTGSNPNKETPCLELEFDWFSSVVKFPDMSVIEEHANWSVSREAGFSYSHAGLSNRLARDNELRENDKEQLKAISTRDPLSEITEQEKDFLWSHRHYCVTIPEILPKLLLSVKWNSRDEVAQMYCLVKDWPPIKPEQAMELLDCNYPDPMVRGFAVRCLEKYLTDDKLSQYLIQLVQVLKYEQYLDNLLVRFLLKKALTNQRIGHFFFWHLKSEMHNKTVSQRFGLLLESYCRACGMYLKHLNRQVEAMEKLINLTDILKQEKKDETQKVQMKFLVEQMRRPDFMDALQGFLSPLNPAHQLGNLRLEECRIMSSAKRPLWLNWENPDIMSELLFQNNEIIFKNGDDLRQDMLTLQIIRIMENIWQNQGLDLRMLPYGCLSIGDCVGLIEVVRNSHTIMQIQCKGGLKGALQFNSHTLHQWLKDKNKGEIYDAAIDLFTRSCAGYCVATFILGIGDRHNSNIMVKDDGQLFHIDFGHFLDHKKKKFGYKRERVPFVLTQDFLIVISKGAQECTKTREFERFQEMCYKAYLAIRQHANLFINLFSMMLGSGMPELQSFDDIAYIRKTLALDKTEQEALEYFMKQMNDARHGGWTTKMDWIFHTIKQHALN
H1047R PIK3CA enzyme, sequence (P27986 whole entry partner): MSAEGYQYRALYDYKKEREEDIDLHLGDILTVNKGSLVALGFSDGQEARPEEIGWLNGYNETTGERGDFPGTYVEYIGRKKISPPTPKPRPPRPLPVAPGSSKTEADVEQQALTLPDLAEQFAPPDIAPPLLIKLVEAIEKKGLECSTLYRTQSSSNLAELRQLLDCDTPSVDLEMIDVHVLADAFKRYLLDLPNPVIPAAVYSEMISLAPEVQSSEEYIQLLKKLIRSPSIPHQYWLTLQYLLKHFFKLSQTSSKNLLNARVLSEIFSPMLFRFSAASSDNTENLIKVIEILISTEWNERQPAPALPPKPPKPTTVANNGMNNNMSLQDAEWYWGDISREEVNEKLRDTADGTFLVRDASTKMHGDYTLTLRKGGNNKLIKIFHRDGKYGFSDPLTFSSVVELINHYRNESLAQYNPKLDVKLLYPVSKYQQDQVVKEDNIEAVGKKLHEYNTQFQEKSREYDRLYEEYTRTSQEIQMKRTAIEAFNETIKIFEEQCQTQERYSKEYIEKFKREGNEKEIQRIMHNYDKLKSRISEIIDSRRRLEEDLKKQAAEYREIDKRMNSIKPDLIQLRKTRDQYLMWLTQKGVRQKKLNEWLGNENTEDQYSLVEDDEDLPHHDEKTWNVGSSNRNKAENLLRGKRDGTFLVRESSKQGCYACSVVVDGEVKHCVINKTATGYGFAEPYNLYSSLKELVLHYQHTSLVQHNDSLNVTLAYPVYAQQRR
In general, IC50 refers to the concentration needed to halve the response being measured. With `O=C(Nc1cc(Nc2ccccc2)cc2c1C(c1cc(F)ccc1Cl)NC2=O)c1cc(F)cc(C(F)(F)F)c1` (stereo not drawn) [Compound I-1213], the 50% inhibitory concentration (IC50) was not above 100 nM. Consider `N#Cc1ncccc1-c1cc(NC(=O)c2cc(F)cc(C(F)(F)F)c2)c2c(c1)C(=O)NC2c1cc(F)ccc1Cl` (stereo not drawn) [Compound I-1214], for which the concentration for half-maximal inhibition (IC50) was not above 100 nM. The figure for `NC(=O)c1cnccc1-c1cc(NC(=O)c2cc(F)cc(C(F)(F)F)c2)c2c(c1)C(=O)NC2c1cc(F)ccc1Cl` (stereo not drawn) [Compound I-1215] is 100 to 500 nM. Regarding `O=C(Nc1cc(-c2ccccc2C(=O)O)cc2c1C(c1cc(F)ccc1Cl)NC2=O)c1cc(F)cc(C(F)(F)F)c1` (stereo not drawn) [Compound I-1216], the half-maximal inhibitory concentration (IC50) fell in the range of 100 to 500 nM. The figure for `O=C(Nc1cc(-c2ccncc2C(=O)O)cc2c1C(c1cc(F)ccc1Cl)NC2=O)c1cc(F)cc(C(F)(F)F)c1` (stereo not drawn) [Compound I-1217] is 100 to 500 nM; for `O=C(Nc1cc(C2CCCN2)cc2c1C(c1cc(F)ccc1Cl)NC2=O)c1cc(F)cc(C(F)(F)F)c1` (stereo not drawn) [Compound I-1218] it is not above 100 nM; for `COc1cnccc1-c1cc(NC(=O)c2cc(F)cc(C(F)(F)F)c2)c2c(c1)C(=O)NC2c1cc(F)ccc1Cl` (stereo not drawn) [Compound I-1219] it is not above 100 nM. The figure for `O=C(O)Cc1ccncc1-c1cc(NC(=O)c2cc(F)cc(C(F)(F)F)c2)c2c(c1)C(=O)NC2c1cc(F)ccc1Cl` (stereo not drawn) [Compound I-1220] is not above 100 nM. Regarding `Cn1ncnc1COc1cc(NC(=O)c2cc(F)cc(C(F)(F)F)c2)c2c(c1)C(=O)NC2c1cc(F)ccc1Cl` (stereo not drawn) [Compound I-1221], the concentration for half-maximal inhibition (IC50) was not above 100 nM. Consider `CN(C)c1ncc(-c2cc(NC(=O)c3cc(F)cc(C(F)(F)F)c3)c3c(c2)C(=O)NC3c2cc(F)ccc2Cl)cn1` (stereo not drawn) [Compound I-1222], for which the 50% inhibitory concentration (IC50) was not above 100 nM. Consider `O=C(Nc1cc(C#CC2COC2)cc2c1C(c1cc(F)ccc1Cl)NC2=O)c1cc(F)cc(C(F)(F)F)c1` (stereo not drawn) [Compound I-1223], for which the IC50 is not above 100 nM. The figure for `O=C(Nc1cc(C#Cc2ccncc2)cc2c1C(c1cc(F)ccc1Cl)NC2=O)c1cc(F)cc(C(F)(F)F)c1` (stereo not drawn) [Compound I-1224] is not above 100 nM.

With `O=C(Nc1cc(C#Cc2cccnc2)cc2c1C(c1cc(F)ccc1Cl)NC2=O)c1cc(F)cc(C(F)(F)F)c1` (stereo not drawn) [Compound I-1225], the concentration for half-maximal inhibition (IC50) is not above 100 nM.

Take `O=C(Nc1cc(-c2ccc3ncnn3c2)nc2c1C(c1cc(F)ccc1Cl)NC2=O)c1cc(F)cc(C(F)(F)F)c1` (stereo not drawn) [Compound I-1226]: the IC50 is not above 100 nM. The figure for `O=C(Nc1cc(N2CCCc3ncccc32)cc2c1C(c1cc(F)ccc1Cl)NC2=O)c1cc(F)cc(C(F)(F)F)c1` (stereo not drawn) [Compound I-1227] is not above 100 nM; for `CS(=O)(=O)N1CC(c2cc(NC(=O)c3cc(F)cc(C(F)(F)F)c3)c3c(c2)C(=O)NC3c2cc(F)ccc2Cl)C1` (stereo not drawn) [Compound I-1228] it is not above 100 nM; for `O=C(Nc1cc(-c2ccc3ncnn3c2)nc2c1[C@H](c1cc(F)ccc1Cl)NC2=O)c1cc(F)cc(C(F)(F)F)c1` [Compound I-1229] it is not above 100 nM. Consider `O=C(Nc1cc(-c2ccc3ncnn3c2)nc2c1[C@@H](c1cc(F)ccc1Cl)NC2=O)c1cc(F)cc(C(F)(F)F)c1` [Compound I-1230], for which the IC50 was in the range of 100 to 500 nM. The figure for `O=C(Nc1cc(-n2cnc3ncccc32)cc2c1C(c1cc(F)ccc1Cl)NC2=O)c1cc(F)cc(C(F)(F)F)c1` (stereo not drawn) [Compound I-1233] is not above 100 nM; for `C=CCCCOc1cc(NC(=O)c2cc(F)cc(C(F)(F)F)c2)c2c(c1)C(=O)NC2c1cc(F)ccc1Cl` (stereo not drawn) [Compound I-1234] it is 500 to 1000 nM; for `CN1CCN(Cc2cc(NC(=O)c3cc(F)cc(C(F)(F)F)c3)c3c(c2)C(=O)NC3c2cc(F)ccc2Cl)CC1=O` (stereo not drawn) [Compound I-1235] it is 100 to 500 nM. Molecule `O=C(Nc1cc(N2CCn3ccnc3C2)cc2c1C(c1cc(F)ccc1Cl)NC2=O)c1cc(F)cc(C(F)(F)F)c1` (stereo not drawn) [Compound I-1236] gave an IC50 not above 100 nM. Take `O=C(Nc1cc(N2CCn3cncc3C2)cc2c1C(c1cc(F)ccc1Cl)NC2=O)c1cc(F)cc(C(F)(F)F)c1` (stereo not drawn) [Compound I-1237]: the concentration for half-maximal inhibition (IC50) was not above 100 nM. The figure for `COC(=O)c1cc(Nc2cccc3c2C(c2cc(F)ccc2Cl)NC3=O)ncc1C(F)(F)F` (stereo not drawn) [Compound I-1238] is 1000 to 10000 nM; for `Cc1cc(=O)[nH]cc1C(=O)Nc1cc(Br)cc2c1C(c1cc(F)ccc1Cl)NC2=O` (stereo not drawn) [Compound I-1240] it is 10000 to 100000 nM; for `O=C(Nc1cc(Br)cc2c1C(c1cc(F)ccc1Cl)NC2=O)c1cc(F)cc(COC(F)(F)F)c1` (stereo not drawn) [Compound I-1241] it is 1000 to 10000 nM. The figure for `O=C(Nc1cc(Br)cc2c1C(c1cc(F)ccc1Cl)NC2=O)c1cc(Cl)cc2c1NCCO2` (stereo not drawn) [Compound I-1242] is 1000 to 10000 nM; for `O=C(Nc1cc(C#Cc2ccn[nH]2)cc2c1C(c1cc(F)ccc1Cl)NC2=O)c1cc(F)cc(C(F)(F)F)c1` (stereo not drawn) [Compound I-1244] it is not above 100 nM. The molecule `Cc1ncc(Nc2cc(NC(=O)c3cc(F)cc(C(F)(F)F)c3)c3c(c2)C(=O)NC3c2cc(F)ccc2Cl)cn1` (stereo not drawn) [Compound I-1245] came in with a half-maximal inhibitory concentration (IC50) not above 100 nM. Consider `O=C(Nc1cc(Oc2ncncc2F)cc2c1C(c1cc(F)ccc1Cl)NC2=O)c1cc(F)cc(C(F)(F)F)c1` (stereo not drawn) [Compound I-1246], for which the IC50 is not above 100 nM. The figure for `Cn1cncc1C#Cc1cc(NC(=O)c2cc(F)cc(C(F)(F)F)c2)c2c(c1)C(=O)NC2c1cc(F)ccc1Cl` (stereo not drawn) [Compound I-1247] is not above 100 nM; for `O=C(Nc1cc(N2CCS(=O)(=O)CC2)cc2c1C(c1cc(F)ccc1Cl)NC2=O)c1cc(F)cc(C(F)(F)F)c1` (stereo not drawn) [Compound I-1248] it is not above 100 nM; for `CN1CCN(c2cc(NC(=O)c3cc(F)cc(C(F)(F)F)c3)c3c(c2)C(=O)NC3c2cc(F)ccc2Cl)CC1=O` (stereo not drawn) [Compound I-1249] it is not above 100 nM. The molecule `O=C(Nc1cc(-n2ccc3ncccc3c2=O)cc2c1C(c1cc(F)ccc1Cl)NC2=O)c1cc(F)cc(C(F)(F)F)c1` (stereo not drawn) [Compound I-1250] yielded an IC50 not above 100 nM. As for `CC(=O)N1CC(Oc2cc(NC(=O)c3cc(F)cc(C(F)(F)F)c3)c3c(c2)C(=O)NC3c2cc(F)ccc2Cl)C1` (stereo not drawn) [Compound I-1251], the IC50 lay in the range of 100 to 500 nM. `O=C(Nc1cc(OC2CNC2)cc2c1C(c1cc(F)ccc1Cl)NC2=O)c1cc(F)cc(C(F)(F)F)c1` (stereo not drawn) [Compound I-1252] showed an IC50 of 100 to 500 nM.

In turn, `CC(C)Oc1cc(NC(=O)c2cc(F)cc(C(F)(F)F)c2)c2c(c1)C(=O)NC2c1cc(F)ccc1Cl` (stereo not drawn) [Compound I-1253] came in with an IC50 not above 100 nM.

As for `CS(C)(=O)=Nc1cc(NC(=O)c2cc(F)cc(C(F)(F)F)c2)c2c(c1)C(=O)NC2c1cc(F)ccc1Cl` (stereo not drawn) [Compound I-1254], the concentration for half-maximal inhibition (IC50) was 100 to 500 nM. Take `O=C(Nc1cc(Br)cc2c1C(c1cc(F)ccc1Cl)NC2=O)NC12CC3CC(C1)CC(C(F)(F)F)(C3)C2` (stereo not drawn) [Compound I-1256]: the IC50 is 100 to 500 nM. The figure for `O=C(Nc1cc(Br)cc2c1C(c1cc(F)ccc1Cl)NC2=O)NC12CC3CC(CC(C3)C1)C2` (stereo not drawn) [Compound I-1257] is 100 to 500 nM; for `O=C(Nc1cc(Nc2cn[nH]c2)cc2c1[C@H](c1cc(F)ccc1Cl)NC2=O)c1cc(F)cc(C(F)(F)F)c1` [Compound I-1258] it is not above 100 nM; for `O=C(Nc1cc(Nc2cn[nH]c2)cc2c1[C@@H](c1cc(F)ccc1Cl)NC2=O)c1cc(F)cc(C(F)(F)F)c1` [Compound I-1259] it is 1000 to 10000 nM.

`O=C(Nc1cc(N2CCc3ncccc32)cc2c1C(c1cc(F)ccc1Cl)NC2=O)c1cc(F)cc(C(F)(F)F)c1` (stereo not drawn) [Compound I-1260] yielded an IC50 not above 100 nM. The figure for `O=C(Nc1cc(N2CCc3cnccc32)cc2c1C(c1cc(F)ccc1Cl)NC2=O)c1cc(F)cc(C(F)(F)F)c1` (stereo not drawn) [Compound I-1261] is not above 100 nM. `N#Cc1ccc2c(c1)CCCN2c1cc(NC(=O)c2cc(F)cc(C(F)(F)F)c2)c2c(c1)C(=O)NC2c1cc(F)ccc1Cl` (stereo not drawn) [Compound I-1262] registered an IC50 not above 100 nM.

In turn, `N#Cc1ccc2c(c1)CCN2c1cc(NC(=O)c2cc(F)cc(C(F)(F)F)c2)c2c(c1)C(=O)NC2c1cc(F)ccc1Cl` (stereo not drawn) [Compound I-1263] returned an IC50 not above 100 nM. The figure for `O=C(Nc1cc(-c2ccccc2S(=O)(=O)F)cc2c1C(c1cc(F)ccc1Cl)NC2=O)c1cc(F)cc(C(F)(F)F)c1` (stereo not drawn) [Compound I-1264] is not above 100 nM; for `O=C(O)Cc1ccccc1-c1cc(NC(=O)c2cc(F)cc(C(F)(F)F)c2)c2c(c1)C(=O)NC2c1cc(F)ccc1Cl` (stereo not drawn) [Compound I-1265] it is 100 to 500 nM; for `O=C(Nc1cc(C2CC23CC3)cc2c1C(c1cc(F)ccc1Cl)NC2=O)c1cc(F)cc(C(F)(F)F)c1` (stereo not drawn) [Compound I-1266] it is not above 100 nM.

Molecule `O=C1CC2(CCN(c3cc(NC(=O)c4cc(F)cc(C(F)(F)F)c4)c4c(c3)C(=O)NC4c3cc(F)ccc3Cl)C2)CN1` (stereo not drawn) [Compound I-1267] showed an IC50 not above 100 nM. `CC(C)(C#N)c1cc(NC(=O)c2cc(F)cc(C(F)(F)F)c2)c2c(c1)C(=O)NC2c1cc(F)ccc1Cl` (stereo not drawn) [Compound I-1268] gave an IC50 not above 100 nM.

Turning to `O=C1NC(c2cc(F)ccc2Cl)c2c(NC(=O)N3CCc4cc(Cl)ccc43)cc(Br)cc21` (stereo not drawn) [Compound I-1269], the IC50 was 1000 to 10000 nM.

The molecule `O=C1NC(c2cc(F)ccc2Cl)c2c(NC(=O)N3CCc4cc(F)ccc43)cc(Br)cc21` (stereo not drawn) [Compound I-1270] showed a half-maximal inhibitory concentration (IC50) not above 100 nM.

Molecule `O=C1NC(c2cc(F)ccc2Cl)c2c(NC(=O)c3cccc4c(Cl)c[nH]c34)cc(Br)cc21` (stereo not drawn) [Compound I-1271] yielded an IC50 of 500 to 1000 nM. Molecule `Cn1cncc1-c1cc(NC(=O)c2cc(F)cc(C(F)(F)F)c2)c2c(c1)C(=O)NC2c1cc(F)ccc1Cl` (stereo not drawn) [Compound I-1272] returned an IC50 not above 100 nM.

On to `O=C(Nc1cc(N2CCCC2=O)cc2c1C(c1cc(F)ccc1Cl)NC2=O)c1cc(F)cc(C(F)(F)F)c1` (stereo not drawn) [Compound I-1273], for which the half-inhibitory concentration (IC50) is not above 100 nM. `O=C1NC(c2ccccc2Cl)c2c(NC(=O)c3cc(F)cc(C(F)(F)F)c3)cccc2O1` (stereo not drawn) [Compound I-1274] had an IC50 of 500 to 1000 nM.

Turning to `CN(C)S(=O)(=O)Cc1cc(NC(=O)c2cc(F)cc(C(F)(F)F)c2)c2c(c1)C(=O)NC2c1cc(F)ccc1Cl` (stereo not drawn) [Compound I-1275], the IC50 was not above 100 nM. Molecule `CS(=O)(=O)c1cc(NC(=O)c2cc(F)cc(C(F)(F)F)c2)c2c(c1)C(=O)NC2c1cc(F)ccc1Cl` (stereo not drawn) [Compound I-1276] showed an IC50 not above 100 nM.

In the case of `CN1CC(c2cc(NC(=O)c3cc(F)cc(C(F)(F)F)c3)c3c(c2)C(=O)NC3c2cc(F)ccc2Cl)NCC1=O` (stereo not drawn) [Compound I-1277], the concentration for half-maximal inhibition (IC50) was not above 100 nM.
